Test results as given in patent publication US6914045B2, “Glycopeptide antibiotics” (Wyeth Holdings Corporation, priority 2001, dated 2005).
≈ marks a conversion by molar mass, not a printed value. Read-outs that look alike come from different tables or passages of the source.

How the values were obtained:
Experiment in all cases: in vitro antibacterial evaluation, MIC by broth dilution
Type in all cases: cell-based
[1] = system: Streptococcus sp.
In short: (§1)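 MIC = lowest antibiotic concentration preventing visible growth; inoculum 5×10^5 CFU/mL; drug range 64-0.06 μg/mL; Muller-Hinton II […]; NCCLS M7-A2 guidance.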

[2] = system: Enterococcus sp.
In short: as §1

[3] = system: Staphylococcus sp.
In short: as §1

[4] = system: Escherichia coli
In short: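 Broth dilution MIC per NCCLS M7-A2 in Mueller-Hinton II medium, inoculum 5×10^5 CFU/mL, antibiotic range 64-0.06 μg/mL. MIC taken as lowest concentration inhibiting growth.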

With `CC(c1ccccc1)C1NC(=O)CNC(=O)C(CO)NC(=O)C(C(O)C2CNC(=N)N2C2OC(CO)C(O)C(O)C2O)NC(=O)C(C(O)C2CNC(=N)N2)NC(=O)C(Cc2ccc(O)c(NC(=O)c3ccccc3)c2)NC1=O` (stereo not drawn) [Example 17, Cyclo[glycyl-β-methylphenylalanyl-3-(benzamido)tyrosyl-3-(2-iminoimidazolidin-4-yl)seryl-3-(3-hexopyranosyl-2-iminoimidazolidin-4-yl)serylseryl]] the “MIC Streptococcus pneumoniae (ATCC 6301)” value ([1]; strain ATCC 6301, broth dilution, 18 hours at 35° C.) was greater than 64 µg/mL, the “MIC Streptococcus pneumoniae (GC 1894)” value ([1]; strain GC 1894, broth dilution, 18 hours at 35° C.) was 64 µg/mL (≈ 58.7 µM) and the “MIC Streptococcus pyogenes (GC 4563)” value ([1]; strain GC 4563, broth dilution, 18 hours at 35° C.) was greater than 64 µg/mL. For the same molecule, the “MIC Streptococcus agalactiae (GC 4564)” value ([1]; strain GC 4564, broth dilution, 18 hours at 35° C.) was greater than 64 µg/mL, the “MIC Streptococcus pneumoniae (GC 4565)” value ([1]; strain GC 4565, broth dilution, 18 hours at 35° C.) was greater than 64 µg/mL and the “MIC Enterococcus faecalis (ATCC 29212)” value ([2]; strain ATCC 29212, broth dilution, 18 hours at 35° C.) was greater than 64 µg/mL. For the same molecule, the “MIC Enterococcus faecalis (GC 2242)” value ([2]; strain GC 2242, broth dilution, 18 hours at 35° C.) was greater than 64 µg/mL, the “MIC Enterococcus faecium (GC 2243)” value ([2]; strain GC 2243, broth dilution, 18 hours at 35° C.) was greater than 64 µg/mL and the “MIC Enterococcus faecalis (GC 2691)” value ([2]; strain GC 2691, broth dilution, 18 hours at 35° C.) was greater than 64 µg/mL. The “MIC Enterococcus faecalis (GC 3059)” value ([2]; strain GC 3059, broth dilution, 18 hours at 35° C.) was greater than 64 µg/mL, the “MIC Enterococcus faecalis (GC 4552)” value ([2]; strain GC 4552, broth dilution, 18 hours at 35° C.) was greater than 64 µg/mL and the “MIC Enterococcus faecalis (GC 4553)” value ([2]; strain GC 4553, broth dilution, 18 hours at 35° C.) was greater than 64 µg/mL. For the same molecule, the “MIC Enterococcus faecalis (GC 4554)” value ([2]; strain GC 4554, broth dilution, 18 hours at 35° C.) was greater than 64 µg/mL, the “MIC Enterococcus faecium (GC 4556)” value ([2]; strain GC 4556, broth dilution, 18 hours at 35° C.) was 64 µg/mL (≈ 58.7 µM) and the “MIC Enterococcus faecium (GC 4557)” value ([2]; strain GC 4557, broth dilution, 18 hours at 35° C.) was 64 µg/mL (≈ 58.7 µM). The “MIC Enterococcus avium (GC 4558)” value ([2]; strain GC 4558, broth dilution, 18 hours at 35° C.) was 64 µg/mL (≈ 58.7 µM), the “MIC Enterococcus faecalis (GC 6189)” value ([2]; strain GC 6189, broth dilution, 18 hours at 35° C.) was greater than 64 µg/mL and the “MIC Staphylococcus aureus (ATCC 29213)” value ([3]; strain ATCC 29213, broth dilution, 18 hours at 35° C.) was greater than 64 µg/mL. For the same molecule, the “MIC Staphylococcus aureus (GC 1131)” value ([3]; strain GC 1131, broth dilution, 18 hours at 35° C.) was greater than 64 µg/mL, the “MIC Staphylococcus aureus (GC 3051)” value ([3]; strain GC 3051, broth dilution, 18 hours at 35° C.) was greater than 64 µg/mL and the “MIC Staphylococcus aureus (GC 3053)” value ([3]; strain GC 3053, broth dilution, 18 hours at 35° C.) was greater than 64 µg/mL. For the same molecule, the “MIC Staphylococcus aureus (GC 4541)” value ([3]; strain GC 4541, broth dilution, 18 hours at 35° C.) was greater than 64 µg/mL, the “MIC Staphylococcus aureus (GC 4542)” value ([3]; strain GC 4542, broth dilution, 18 hours at 35° C.) was greater than 64 µg/mL and the “MIC Staphylococcus aureus-SMITH (GC 4543)” value ([3]; strain GC 4543, broth dilution, 18 hours at 35° C.) was greater than 64 µg/mL. For the same molecule, the “MIC Staphylococcus aureus (GC 4544)” value ([3]; strain GC 4544, broth dilution, 18 hours at 35° C.) was greater than 64 µg/mL, the “MIC Staphylococcus aureus (GC 4545)” value ([3]; strain GC 4545, broth dilution, 18 hours at 35° C.) was greater than 64 µg/mL and the “MIC Staphylococcus haemolyticus (GC 4546)” value ([3]; strain GC 4546, broth dilution, 18 hours at 35° C.) was greater than 64 µg/mL. The “MIC Coagulase Negative Staphylococcus (GC 4547)” value ([3]; strain GC 4547, broth dilution, 18 hours at 35° C.) was 64 µg/mL (≈ 58.7 µM), the “MIC Coagulase Negative Staphylococcus (GC 4548)” value ([3]; strain GC 4548, broth dilution, 18 hours at 35° C.) was greater than 64 µg/mL and the “MIC Coagulase Negative Staphylococcus (GC 4549)” value ([3]; strain GC 4549, broth dilution, 18 hours at 35° C.) was 32 µg/mL (≈ 29.4 µM). The “MIC Coagulase Negative Staphylococcus (GC 4551)” value ([3]; strain GC 4551, broth dilution, 18 hours at 35° C.) was greater than 64 µg/mL, the “MIC Coagulase Negative Staphylococcus (GC 6257)” value ([3]; strain GC 6257, broth dilution, 18 hours at 35° C.) was 64 µg/mL (≈ 58.7 µM) and the “MIC Escherichia coli (ATCC 25922)” value ([4]; strain ATCC 25922, broth dilution, 18 hours at 35° C.) was 64 µg/mL (≈ 58.7 µM). For the same molecule, the “MIC Escherichia coli (GC 4559)” value ([4]; strain GC 4559, broth dilution, 18 hours at 35° C.) was 32 µg/mL (≈ 29.4 µM) and the “MIC Escherichia coli (GC 4560)” value ([4]; strain GC 4560, broth dilution, 18 hours at 35° C.) was 16 µg/mL (≈ 14.7 µM).
`CC(c1ccccc1)C1NC(=O)CNC(=O)C(CO)NC(=O)C(C(O)C2CNC(=N)N2C2OC(CO)C(O)C(O)C2O)NC(=O)C(C(O)C2CNC(=N)N2)NC(=O)C(Cc2ccc(OC3OC(CO)C(OC4OC(CO)C(O)C(O)C4O)C(O)C3O)c(I)c2)NC1=O` (stereo not drawn) [Example 6, Cyclo[glycyl-β-methylphenylalanyl-O-(4-O-hexolpyranosylhexolpyranosyl)-3-iodo-tyrosyl-3-(2-iminoimidazolidin-4-yl)seryl-3-(3-hexolpyranosyl-2-iminoimidazolidin-4-yl)serylseryl]] was tested, and the “MIC Streptococcus agalactiae (GC 4564)” value [1] was greater than 128 µg/mL, the “MIC Streptococcus pneumoniae (GC 4565)” value [1] was greater than 128 µg/mL and the “MIC Streptococcus pyogenes (ID-3187)” value [1] was greater than 128 µg/mL. The “MIC Enterococcus avium (GC 4558)” value [2] was greater than 128 µg/mL, the “MIC Enterococcus faecalis (ATCC 29212)” value [2] was greater than 128 µg/mL and the “MIC Enterococcus faecalis (GC 2242)” value [2] was greater than 128 µg/mL. The “MIC Enterococcus faecalis (GC 4552)” value [2] was greater than 128 µg/mL, the “MIC Enterococcus faecalis (GC 4553)” value [2] was greater than 128 µg/mL and the “MIC Enterococcus faecalis (GC 4554)” value [2] was greater than 128 µg/mL. For the same molecule, the “MIC Enterococcus faecium (GC 2243)” value [2] was greater than 128 µg/mL, the “MIC Enterococcus faecium (GC 4556)” value [2] was greater than 128 µg/mL and the “MIC Enterococcus faecium (GC 4557)” value [2] was greater than 128 µg/mL. For the same molecule, the “MIC Coagulase Negative Staphylococcus (GC 4547)” value [3] was greater than 128 µg/mL, the “MIC Coagulase Negative Staphylococcus (GC 4548)” value [3] was greater than 128 µg/mL and the “MIC Coagulase Negative Staphylococcus (GC 4549)” value [3] was greater than 128 µg/mL. For the same molecule, the “MIC Coagulase Negative Staphylococcus (GC 4551)” value [3] was greater than 128 µg/mL, the “MIC Coagulase Negative Staphylococcus (ID-3941)” value [3] was greater than 128 µg/mL and the “MIC Staphylococcus aureus (ATCC 29213)” value [3] was greater than 128 µg/mL. The “MIC Staphylococcus aureus (GC 1131)” value [3] was greater than 128 µg/mL, the “MIC Staphylococcus aureus (GC 4541)” value [3] was greater than 128 µg/mL and the “MIC Staphylococcus aureus (GC 4542)” value [3] was greater than 128 µg/mL. The “MIC Staphylococcus aureus (GC 4544)” value [3] was greater than 128 µg/mL, the “MIC Staphylococcus aureus (GC 4545)” value [3] was greater than 128 µg/mL and the “MIC Staphylococcus aureus-SMITH (GC 4543)” value [3] was greater than 128 µg/mL. For the same molecule, the “MIC Staphylococcus haemolyticus (GC 4546)” value [3] was greater than 128 µg/mL, the “MIC Escherichia coli (ATCC 25922)” value [4] was greater than 128 µg/mL and the “MIC Escherichia coli (GC 4559)” value [4] was greater than 128 µg/mL. The “MIC Escherichia coli (GC 4560)” value [4] was greater than 128 µg/mL.
